Laboratory results reported in patent US4210638A, “Antiviral composition and method of treating virus diseases” (PCR, Inc., priority 1978, dated 1980).
Values joined by “and” are separate entries in the source; they are usually repeats but may differ in a detail not shown here. Equal entries are not always repeated. Where two headings read alike, the source gives them in different places.

Experiments:
[1] = target: T1, HSV-2 induced pyrimidine deoxyribonucleoside kinase (Human herpesvirus 2 strain HG52, UniProt P89446); test: Phosphorylation by HSV-2 induced pyrimidine deoxyribonucleoside kinase; assay type: biochemical
T1 construct: preparation not described in the excerpts
T1 sequence (P89446 whole entry): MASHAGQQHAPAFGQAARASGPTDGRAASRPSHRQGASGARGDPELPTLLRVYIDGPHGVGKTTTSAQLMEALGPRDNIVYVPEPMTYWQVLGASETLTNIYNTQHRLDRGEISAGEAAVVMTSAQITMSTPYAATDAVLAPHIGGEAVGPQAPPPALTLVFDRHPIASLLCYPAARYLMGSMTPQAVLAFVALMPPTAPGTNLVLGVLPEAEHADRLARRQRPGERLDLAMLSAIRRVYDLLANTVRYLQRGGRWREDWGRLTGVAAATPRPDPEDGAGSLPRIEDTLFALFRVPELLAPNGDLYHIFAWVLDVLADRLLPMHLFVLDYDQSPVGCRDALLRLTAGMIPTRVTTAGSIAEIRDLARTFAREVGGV
Excerpt: The following spots were eluted into H2 O and scanned from 225 to 350 nm: (a) standard, (b) F3 methyl dC standard, […] spot after cytidine deaminase treatment of F3 dT and […] spot after cytidine deaminase treatment of F3 methyl dC. The u.v. absorption profile of F3 dT derived from deamination of F3 methyl dC is identical to that obtained from authentic F3 dT.
Solutions a, c, and d, above, were adjusted to the same O. D. and used as substrates for HSV-2 induced pyrimidine deoxyribonucleoside kinase. Results:
Stock solutions of F3 dT and F3 methyl dC were made up and adjusted to the same concentration as the F3 dT and F3 methyl dC purified chromatographically (solutions a and b, respectively). Usually, F3 methyl dC is phosphorylated 1/6 of the extent that F3 dT is phosphorylated. […] This experiment was performed twice. Results:
Values for chromatographically purified samples are probably lower due to impurities arising from non-acid washed paper.

cytidine deaminase = test: Incubation with crude cytidine deaminase extract of HEP-2 cells (deamination); assay type: in vitro ADME, human; conditions: crude HEP-2 cytidine deaminase extract; Whatman 3MM chromatography
[2] = Incubation with HNO2 (pH 4.5) at room temperature; assay type: physicochemical; conditions: 9 hours
Description: (§1) The results of incubation with HNO2 (pH 4.5) at room temperature were identical to those obtained above.

[3] = Incubation with acetate buffer (pH 4.5); assay type: physicochemical; conditions: 9 hours
Description: as §1

HSV-2 = test: Antiviral activity vs HSV-2 in HEp-2 cells (plaque assay in BHK cells); assay type: cell-based; conditions: for Average Log10 S.F.: +H4 U
Description: (§2) The culture medium containing the nucleoside analogs at varying concentrations are added to the infected cultures. In the case of HEp-2 cells which contain high deaminase levels, H4 U is incorporated into the medium. At 48 hours, virus is harvested from the cultures by freezing and thawing. The virus produced from each culture is titred by plaque assay in BHK cells. By using this protocol the antiviral effectiveness of F3 methyl dC can be compared directly with the effectiveness of other antiviral agents. Furthermore, by including H4 U in the medium, the effectiveness of F3 methyl dC can be determined without deamination at the nucleoside level.

HSV-1 = test: Antiviral activity vs HSV-1 in HEp-2 cells (plaque assay in BHK cells); assay type: cell-based; conditions: for Log10 S.F. vs HSV-1: + H4 U (from FIG. 3)
Description: as §2

[4] = system: Herpes-varicella-zoster virus (VZV); test: Antiviral activity against cells infected with Herpes-varicella-zoster virus; assay type: cell-based
[5] = Survival / toxicity in the mouse; conditions: in vivo
Description: That is, 3 mg/kg body weight to 75 mg/kg body weight; for example, about 10 mg/kg body weight per day for 7 days or 700 mg for a 70 kg man per day for 7 days. […] 100 percent survival was obtained with a dose of 50 mg.

Solubility = assay type: physicochemical
Metabolic stability = conditions: versus prior antiviral agents
[6] = Cytotoxicity vs HEp-2 cells (colony formation, % survival); conditions: human, hep-2 cells; for viability at 48 h, 60 µM: % S of HEp-2 cells, 0.06 mM; for viability at 48 h, 3 µM: 0.003 mM; for viability at 48 h, 30 µM: 0.03 mM; for viability at 48 h, 300 µM: 0.3 mM
HEp-2 cells = test: as above; conditions: for % Survival: 2880 min
[7] = % Survival, +H4 U 500 μg/ml (experiment 3 and 4)

Nc1nc(=O)n([C@H]2C[C@H](O)[C@@H](CO)O2)cc1C(F)(F)F [F3 methyl dC, 5-trifluoromethyl-2'-deoxycytidine]
ratio of phosphorylation relative to F3 dT ([1]; chromatographically purified): Approx 1/3 | nmoles phosphorylated/4 hrs ([1]; chromatographically purified, value in parentheses (experiment performed twice)): 0.06 nmoles/4 hrs | nmoles phosphorylated/4 hrs ([1]; chromatographically purified, value outside parentheses): 0.04 nmoles/4 hrs | ratio of phosphorylation relative to F3 dT ([1]; standard solutions): Approx 1/4 | nmoles phosphorylated/4 hrs ([1]; standard solutions, value in parentheses (experiment performed twice)): 0.08 nmoles/4 hrs | nmoles phosphorylated/4 hrs ([1]; standard solutions, value outside parentheses): 0.48 nmoles/4 hrs | extent of phosphorylation relative to F3 dT ([1]; usual value): 1/6 | chromatographic change on incubation with cytidine deaminase (cytidine deaminase): formation of an Rf =0.43 spot and disappearance of the 0.80 spot | conversion to a product that has the same Rf as F3 dT [2]: approximately 98% | modification in acetate buffer [3]: did not lead to modification | Log10 Surviving Fraction of Plaque Forming Units (HSV-2; 0.003 mM, +H4 U 500 μg/ml (experiment 3 and 4)): -1.9 | Average Log10 S.F. (HSV-2; 0.003 mM, average): -1.7 | Average Log10 S.F. (HSV-2; 0.03 mM, average): -3.6 | Log10 Surviving Fraction of Plaque Forming Units (HSV-2; 0.3 mM, +H4 U 100 μg/ml (experiment 1 and 2)): -3.7 | Average Log10 S.F. (HSV-2; 0.3 mM, average): -3.7 | log reduction at 3 µM (HSV-2; Human alphaherpesvirus 2, 48 h, 0.003 mM, -H4 U, average, read-out: Average Log10 S.F.): 0.94 | log reduction at 30 µM (HSV-2; Human alphaherpesvirus 2, 48 h, 0.03 mM, +2'dH4 U 500 μg/ml, read-out: Log10 S.F. HSV-2): 3.5 | log reduction at 30 µM (HSV-2; Human alphaherpesvirus 2, 48 h, 0.03 mM, +H4 U 500 μg/ml, read-out: Log10 S.F. HSV-2): 3.4 | log reduction at 30 µM (HSV-2; Human alphaherpesvirus 2, 48 h, 0.03 mM, -H4 U, average, read-out: Average Log10 S.F.): 3.2 | log reduction at 30 µM (HSV-2; Human alphaherpesvirus 2, 48 h, 0.03 mM, no addition, read-out: Log10 S.F. HSV-2): 3.3 | log reduction at 300 µM (HSV-2; Human alphaherpesvirus 2, 48 h, 0.3 mM, -H4 U, average, read-out: Average Log10 S.F.): 3.7 | log reduction at 300 µM (HSV-2; Human alphaherpesvirus 2, 48 h, 0.3 mM, -H4 U, read-out: Log10 Surviving Fraction of Plaque Forming Units): 3.7 | log reduction at 30 µM (HSV-2; Human alphaherpesvirus 2, 48 h, read-out: Log10 Surviving Fraction of Plaque Forming Units, 0.03 mM, -H4 U): 3.1 | Log10 S.F. vs HSV-1 (HSV-1; 0.003 mM): -4.2 | Log10 S.F. vs HSV-1 (HSV-1; 0.03 mM): < -4.6 | antiviral activity vs HSV-1 compared with F3 dT±H4 U (HSV-1; ±H4 U (FIG. 3)): more potent antiviral activity than F3 dT±H4 U | antiviral activity against cells infected with VZV [4]: selective antiviral activity | survival at 168 h ([5]; 50 mg/kg/day for 7 days, coadministered with H4 U): 100% | survival at 168 h ([5]; 250 mg/kg once per day for 7 days, H4 U coadministered one hour prior): 60% | LD50 at 168 h ([5]; coadministered with H4 U, for 7 days): 325 mg/kg | solubility in DMSO (Solubility; DMSO): a solvent for the F3 methyl dC | solubility in acetone (Solubility; acetone): insoluble in acetone | solubility in water (Solubility; water): partially soluble in water | metabolic stability (Metabolic stability): substantially increased metabolic stability | viability at 48 h, 60 µM ([6]; +2'dH4 U 500 μg/ml): 50 ± 5% | viability at 48 h, 60 µM ([6]; +H4 U 500 μg/ml): 9 ± 3% | viability at 48 h, 60 µM ([6]; no addition): < 0.006% | viability at 48 h, 3 µM ([6]; % Survival, +H4 U 100 μg/ml (experiment 1 and 2)): 100% | viability at 48 h, 3 µM [6, 7]: 53% | viability at 48 h, 30 µM [6, 7]: 25% | viability at 48 h, 300 µM [6, 7]: 0.001% | viability at 48 h, 3 µM ([6]; Average % S, +H4 U, average): 77% | viability at 48 h, 3 µM ([6]; Average % S, -H4 U, average): 0.95% | viability at 48 h, 30 µM ([6]; Average % S, +H4 U, average): 32% | viability at 48 h, 30 µM ([6]; Average % S, -H4 U, average): < 0.01% | viability at 48 h, 300 µM ([6]; Average % S, +H4 U, average): < 0.01% | viability at 48 h, 300 µM ([6]; Average % S, -H4 U, average): < 0.01% | % Survival (HEp-2 cells; 0.003 mM, +H4 U 100 μg/ml (experiment 1 and 2), 3 µM): 93% | % Survival (HEp-2 cells; 0.003 mM, +H4 U 500 μg/ml (experiment 3 and 4), 3 µM): 61% | % Survival (HEp-2 cells; 0.003 mM, -H4 U, 3 µM): 3% and 0.1% and 0.6% | % Survival (HEp-2 cells; 0.03 mM, +H4 U 500 μg/ml (experiment 3 and 4), 30 µM): 31% | cytotoxicity at concentrations with antiviral activity (HEp-2 cells; +H4 U): only marginally cytotoxic | increased survival with H4 dU than with H4 U (HEp-2 cells; F3 methyl dC with H4 dU versus with H4 U): ~5 fold | therapeutic index (HEp-2 cells; with H4 U, HSV-2 vs HEp-2 cytotoxicity): high therapeutic index | cytotoxicity at concentrations with antiviral activity (HEp-2 cells; without H4 U): extremely cytotoxic | cytotoxicity at effective antiviral concentrations (HEp-2 cells; ±H4 U (summary of Table IV)): marginal to only moderate cytotoxicity
